# From PMC7915724 (2021)
# Tests used:
# Assay in all cases: SPR
# [1] = test system: biotin-Py24 (VEGF i-motif) (DNA, i motif) GACCCCGCCCCCGGCCCGCCCCGG; conditions: 100 mM KCl; 20 mM MES pH 5.5, 0.05% Tween-20, 25 °C; tested up to 50 μM
# [2] = test system: biotin-Pu24 (VEGF G-quadruplex) (DNA, G4) CCGGGGCGGGCCGGGGGCGGGGTC; conditions: 100 mM KCl; 20 mM Tris-HCl pH 7.4, 25 °C; tested up to 50 μM
# [3] = test system: biotin-Hairpin (duplex DNA) (DNA, hairpin, HEG (hexaethylene glycol) linker between 10 and 11) TATAGCTATATATAGCTATA; conditions: 100 mM KCl; 20 mM Tris-HCl pH 7.4, 25 °C; tested up to 50 μM
# [4] = test system: biotin-Py24 (VEGF i-motif) (DNA, i motif) GACCCCGCCCCCGGCCCGCCCCGG; conditions: 100 mM KCl; 20 mM MES pH 5.5, 0.05% Tween-20, 25 °C
Compound,KD [1],KD [2],KD [3],KD [4]
CC1(C)CC[C@]2(C(=O)N3CCN(C(=O)Cn4cnc5[nH]c(=O)[nH]c(=O)c54)CC3)CC[C@]3(C)C(=CC[C@@H]4[C@@]5(C)CC[C@H](O)C(C)(C)[C@@H]5CC[C@]43C)[C@@H]2C1,> 50 µM,> 50 µM,> 50 µM,–
CC1(C)CC[C@]2(C(=O)N3CCN(c4ccc(F)cc4F)CC3)CC[C@]3(C)C(=CC[C@@H]4[C@@]5(C)CC[C@H](O)C(C)(C)[C@@H]5CC[C@]43C)[C@@H]2C1,> 50 µM,> 50 µM,> 50 µM,–
CC1(C)CC[C@]2(C(=O)N3CCN(c4cccc(C(F)(F)F)c4)CC3)CC[C@]3(C)C(=CC[C@@H]4[C@@]5(C)CC[C@H](O)C(C)(C)[C@@H]5CC[C@]43C)[C@@H]2C1,> 50 µM,> 50 µM,> 50 µM,–
CC1(C)CC[C@]2(C(=O)NCCNS(=O)(=O)N3CCOCC3)CC[C@]3(C)C(=CC[C@@H]4[C@@]5(C)CC[C@H](O)C(C)(C)[C@@H]5CC[C@]43C)[C@@H]2C1,–,> 50 µM,> 50 µM,13.8 µM
CC1(C)CC[C@]2(C(=O)NCCc3c[nH]cn3)CC[C@]3(C)C(=CC[C@@H]4[C@@]5(C)CC[C@H](O)C(C)(C)[C@@H]5CC[C@]43C)[C@@H]2C1,–,> 50 µM,> 50 µM,12.1 µM
CC1(C)CC[C@]2(C(=O)NCc3cn(CCC#N)nn3)CC[C@]3(C)C(=CC[C@@H]4[C@@]5(C)CC[C@H](O)C(C)(C)[C@@H]5CC[C@]43C)[C@@H]2C1,–,> 50 µM,> 50 µM,19.3 µM
CC1(C)CC[C@]2(C(=O)NCc3cn(CCC(=O)O)nn3)CC[C@]3(C)C(=CC[C@@H]4[C@@]5(C)CC[C@H](O)C(C)(C)[C@@H]5CC[C@]43C)[C@@H]2C1,–,> 50 µM,> 50 µM,13.0 µM
CC1(C)CC[C@]2(C(=O)NCc3cn(CCCc4ccccc4)nn3)CC[C@]3(C)C(=CC[C@@H]4[C@@]5(C)CC[C@H](O)C(C)(C)[C@@H]5CC[C@]43C)[C@@H]2C1,> 50 µM,> 50 µM,> 50 µM,–
CC1(C)CC[C@]2(C(=O)NCc3cn(Cc4ccccc4)nn3)CC[C@]3(C)C(=CC[C@@H]4[C@@]5(C)CC[C@H](O)C(C)(C)[C@@H]5CC[C@]43C)[C@@H]2C1,> 50 µM,> 50 µM,> 50 µM,–
CC1(C)CC[C@]2(C(=O)NCc3cn(Cc4nc5ccccc5[nH]4)nn3)CC[C@]3(C)C(=CC[C@@H]4[C@@]5(C)CC[C@H](O)C(C)(C)[C@@H]5CC[C@]43C)[C@@H]2C1,–,> 50 µM,> 50 µM,10.6 µM
CC1(C)CC[C@]2(C(=O)NCc3cn([C@@H]4O[C@H](CO)[C@@H](O)[C@H](O)[C@H]4O)nn3)CC[C@]3(C)C(=CC[C@@H]4[C@@]5(C)CC[C@H](O)C(C)(C)[C@@H]5CC[C@]43C)[C@@H]2C1,–,> 50 µM,> 50 µM,12.0 µM
COC(=O)[C@]12CCC(C)(C)C[C@H]1[C@H]1C(=O)C[C@@H]3[C@@](C)(CCC(=O)NCCCN4CCOCC4)[C@H](C(C)(C)O)CC[C@@]3(C)[C@]1(C)CC2,–,> 50 µM,> 50 µM,31.3 µM
COC(=O)[C@]12CCC(C)(C)C[C@H]1[C@H]1C(=O)C[C@@H]3[C@@](C)(CCC(=O)NCCCn4ccnc4)[C@H](C(C)(C)O)CC[C@@]3(C)[C@]1(C)CC2,–,> 50 µM,> 50 µM,21.1 µM
COc1ccccc1N1CCN(C(=O)[C@]23CCC(C)(C)C[C@H]2C2=CC[C@@H]4[C@@]5(C)CC[C@H](O)C(C)(C)[C@@H]5CC[C@@]4(C)[C@]2(C)CC3)CC1,> 50 µM,> 50 µM,> 50 µM,–
Cc1cn(CC(=O)N2CCN(C(=O)[C@]34CCC(C)(C)C[C@H]3C3=CC[C@@H]5[C@@]6(C)CC[C@H](O)C(C)(C)[C@@H]6CC[C@@]5(C)[C@]3(C)CC4)CC2)c(=O)[nH]c1=O,> 50 µM,> 50 µM,> 50 µM,–
